Results: US20060166310A1, “Serotonin receptor” (Inpharmatica Ltd., priority 2002, published 2006)

Legend:
INPIONCH1 = biological target: T1, INPIONCH1 (Homo sapiens, UniProt Q401N2); assay: Whole cell patch-clamp of HEK293 cells transfected with INPIONCH1; assay type: cell-based; details: for activation of current on application: cells transfected with INPIONCH1
T1 construct: V5 (C); His (C); expressed in transfected cells; host or cells: HEK293
T1 sequence (Q401N2 2-412): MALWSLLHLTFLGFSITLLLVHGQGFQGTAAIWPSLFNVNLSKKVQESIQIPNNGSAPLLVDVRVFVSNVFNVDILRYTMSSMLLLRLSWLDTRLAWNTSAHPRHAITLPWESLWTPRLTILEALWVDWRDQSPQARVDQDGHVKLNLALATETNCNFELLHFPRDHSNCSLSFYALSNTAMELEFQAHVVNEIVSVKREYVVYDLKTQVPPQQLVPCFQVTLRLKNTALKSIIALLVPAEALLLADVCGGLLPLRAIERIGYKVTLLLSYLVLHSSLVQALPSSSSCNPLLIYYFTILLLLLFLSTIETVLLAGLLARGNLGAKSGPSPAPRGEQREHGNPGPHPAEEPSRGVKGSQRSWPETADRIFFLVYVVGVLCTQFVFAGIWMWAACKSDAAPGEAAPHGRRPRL
Excerpt: Cells were clamped at −80 mV or −60 mV. Drugs were applied by pressure ejection from modified micropipettes.

HEK293 cells = details: 1 mM
Procedure: To overcome these difficulties, HEK293 cells were transfected with either INPIONCH1 or one of the two chimeras (IS67 or IS68) and subsequently placed under selection pressure. Following transfection, positively expressing cells were selected by treatment with 1 mM neomycin and only cells that grew under these conditions were used to determine the electrophysiological characteristics of the various expressed clones.

NCCc1c[nH]c2ccc(O)cc12 [5-HT, serotonin]
current on application of 5-HT (INPIONCH1; 10 μM, HEK293 cells expressing INPIONCH1): inward current | response following a second application (desensitisation) (INPIONCH1; second application of 5-HT, stated for 'the channels'): minimal or absent | reversal potential of 5-HT-induced current (INPIONCH1; voltage ramps -90 to +90 mV before and after 5-HT application): about 0 mV | induction of currents before and after application of zinc sulphate (INPIONCH1; zinc sulphate 1 mM): able to induce currents

COc1cc2c3cc1Oc1cc(ccc1O)C[C@@H]1c4c(cc(OC)c(O)c4Oc4ccc(cc4)C[C@@H]3N(C)CC2)CC[N+]1(C)C [Tubocurarine]
effect on the 5-HT induced channel (INPIONCH1): no effect | effect on the leak channel (INPIONCH1): no effect

CC(=O)OCC[N+](C)(C)C [acteylcholine]
activation of current on application (INPIONCH1): appeared not to activate current

CN1CCCC1c1cccnc1 (stereo not shown) [nicotine]
activation of current on application (INPIONCH1): appeared not to activate current | effect on outward current recorded at positive potentials (INPIONCH1; in some cells): appeared to block outward current

NC[C@H](O)c1ccc(O)c(O)c1 [noradrenaline]
activation of current on application (INPIONCH1): appeared not to activate current

O=S(=O)([O-])[O-].[Zn+2] [zinc sulphate]
toxicity to the cells (HEK293 cells): appeared to be toxic | zinc activated current (INPIONCH1; zinc sulphate application): no consistent specific zinc activated current was observed | effect on amplitude of the current in response to 5-HT (INPIONCH1; zinc sulphate applied to the cells): appeared to reduce the amplitude
